The values below are quoted from earlier work in patent publication US11827744B2, “Bottlebrush copolymers and uses thereof” (Massachusetts Institute of Technology, priority 2016, dated 2023).

The conditions of data set [1]: in vivo.

In the case of `CCc1c2c(nc3ccc(O)cc13)-c1cc3c(c(=O)n1C2)COC(=O)[C@]3(O)CC` [SN-38], the water solubility entry was “low water solubility”. For the same compound, the circulation life-times entry in data set [1] is “short circulation life-times”.
